Assay results: patent publication US5480880A, “Penem derivatives” (Farmitalia Carlo Erba S.r.l., priority 1991, dated 1996)

How the values were obtained:
[1] = tested on: Escherichia coli G (clinical isolate); assay: In vivo activity on mouse systemic infection, E. coli (ED50); details: sc, 120 h, mouse systemic infection (female CD1), subcutaneous, treatment 30-90-360 min after infection, survival on day 5, read-out: ED50 (cumulative subcutaneous dose)
Description: (§1) Invivo activity of Compound of formula (I), R =
(§2) CH2 SO2 NHCN (Example 1), in comparison with FCE 22101*,
(§3) on mouse^a systemic infections.
(§4) ^a) Female mice CD1 (Charles River, Italy), weighing 22 ± 2 g were
(§5) used, experimentally infected by an introperitoneal route. Eight animals
(§6) were used at each of the concentrations of compound tested, which were
(§7) administered subcutaneously (0.1 ml/10 g weight). The mortality was
(§8) recorded daily and the number of animals surviving on day 5 was used to
(§9) calculate the cumulative effective dose (ED50).
(§10) ^b) Cumulative subcutaneous dose.
(§11) ^c) Infecting organisms were: S. aureus, Staphylococcus aureus Smith
(§12) ATCC 13709; E. Coli, Escherichia coli G (clinical isolate); S. faecalis,
(§13) ^d) Minutes after infection.

[2] = tested on: Streptococcus faecalis 3817 (clinical isolate); assay: In vivo activity on mouse systemic infection, S. faecalis (ED50); details: Enterococcus faecalis, sc, 120 h, mouse systemic infection (female CD1), subcutaneous, treatment 60-180 min after infection, survival on day 5, read-out: ED50 (cumulative subcutaneous dose)
Description: as §1, §2, §3, §4, §5, §6, §7, §8, §9, §10, §11, §12
Streptococcus faecalis 3817 (clinical isolate).
as §13

[3] = tested on: Staphylococcus aureus Smith ATCC 13709; assay: In vivo activity on mouse systemic infection, S. aureus (ED50); details: ATCC13709, sc, 120 h, mouse systemic infection (female CD1), subcutaneous, treatment 120 min after infection, survival on day 5, read-out: ED50 (cumulative subcutaneous dose)
Description: as §1, §2, §3, §4, §5, §6, §7, §8, §9, §10, §11, §12, §13

Acute toxicity in mice = details: in vivo; mouse, I.D. (so in the source)

CC(O)C1C(=O)N2C(C(=O)O)=C(c3ccc(C[n+]4ccc(CS(=O)(=O)[N-]C#N)cc4)cc3)SC12 [Example 1, (5R,6S)-6-/1 (R)-Hydroxyethyl/-2-/4-/4-(N-cyanosulfamoylato) methyl-1-pyridinio/methylphenyl/penem-3-carboxylic acid]
ED50 [1]: 0.65 mg/kg
ED50 [2]: 8.5 mg/kg
ED50 [3]: 0.16 mg/kg
LD50 (Acute toxicity in mice): > 3000 mg/kg

CC(O)C1C(=O)N2C(C(=O)O)=C(COC(N)=O)SC12 (stereo not shown) [FCE 22101, reference compound]
ED50 [1]: 10 mg/kg
ED50 [2]: 80 mg/kg
ED50 [3]: 0.7 mg/kg
